# Assay results reported in ChEMBL document CHEMBL4145553, “Design, synthesis, and biological evaluation of novel amide and hydrazide based thioether analogs targeting Histone deacteylase (HDAC) enzymes” (Eur J Med Chem, 2018).
# Calls of active or inactive are those of the source. No cut-off for these calls is given here.
# Experiments:
# 786-0 = test: Growth inhibition of human 786-0 cells assessed as cell growth at 10^-7 M incubated for 48 hrs by sulforhodamine B assay relative to control; format: functional; settings: 786-0, 48 h, read-out: Activity
# NCI-H522 [1] = test: Growth inhibition of human NCI-H522 cells assessed as cell growth at 10^-5 M incubated for 48 hrs by sulforhodamine B assay relative to control; format: functional; settings: NCI-H522, 48 h, read-out: Activity
# NCI-H23 = test: Growth inhibition of human NCI-H23 cells assessed as cell growth at 10^-6 M incubated for 48 hrs by sulforhodamine B assay relative to control; format: functional; settings: NCI-H23, 48 h, read-out: Activity
# RXF 393 = test: Growth inhibition of human RXF393 cells assessed as cell growth at 10^-8 M incubated for 48 hrs by sulforhodamine B assay relative to control; format: functional; settings: RXF 393, 48 h, read-out: Activity
# MOLT-4 [2] = test: Growth inhibition of human MOLT4 cells assessed as cell growth at 10^-4 M incubated for 48 hrs by sulforhodamine B assay relative to control; format: functional; settings: MOLT-4, 48 h, read-out: Activity
# TK-10 = test: Growth inhibition of human TK10 cells incubated for 48 hrs by sulforhodamine B assay; format: functional; settings: TK-10, 48 h
# Malme-3M = test: Growth inhibition of human MALME-3M cells assessed as cell growth at 10^-7 M incubated for 48 hrs by sulforhodamine B assay relative to control; format: functional; settings: read-out: Activity
# MDA-MB-435 = test: Cell cycle arrest in human MDA-MB-435 cells assessed as accumulation at G2-phase by propidium iodide staining based flow cytometry (reference value: 3.68%); format: functional
# MDA-MB-231 [3] = test: Growth inhibition of human MDA-MB-231 cells assessed as cell growth at 10^-4 M incubated for 48 hrs by sulforhodamine B assay relative to control; format: functional; settings: MDA-MB-231, 48 h, read-out: Activity
# HL-60 = test: Induction of apoptosis in human HL60 cells assessed as increase in caspase-9 expression by qRT-PCR method; format: functional, cell-based
# K562 = test: Growth inhibition of human K562 cells assessed as cell growth at 10^-8 M incubated for 48 hrs by sulforhodamine B assay relative to control; format: functional; settings: K562, 48 h, read-out: Activity
# SF-268 = test: Growth inhibition of human SF268 cells assessed as cell growth at 10^-4 M incubated for 48 hrs by sulforhodamine B assay relative to control; format: functional; settings: SF-268, 48 h, read-out: Activity
# MDA-MB-231 [4] = test: Growth inhibition of human MDA-MB-231 cells assessed as cell growth at 10^-6 M incubated for 48 hrs by sulforhodamine B assay relative to control; format: functional; settings: MDA-MB-231, 48 h, read-out: Activity
# EKVX = test: Growth inhibition of human EKVX cells assessed as cell growth at 10^-7 M incubated for 48 hrs by sulforhodamine B assay relative to control; format: functional; settings: read-out: Activity
# RPMI-8226 = test: Growth inhibition of human RPMI8226 cells assessed as cell growth at 10^-6 M incubated for 48 hrs by sulforhodamine B assay relative to control; format: functional; settings: RPMI-8226, 48 h, read-out: Activity
# KM12 [5] = test: Growth inhibition of human KM12 cells assessed as cell growth at 10^-5 M incubated for 48 hrs by sulforhodamine B assay relative to control; format: functional; settings: KM12, 48 h, read-out: Activity
# OVCAR-4 = test: Growth inhibition of human OVCAR4 cells incubated for 48 hrs by sulforhodamine B assay; format: functional; settings: OVCAR-4, 48 h
# DU-145 = test: Growth inhibition of human DU145 cells assessed as cell growth at 10^-6 M incubated for 48 hrs by sulforhodamine B assay relative to control; format: functional; settings: DU-145, 48 h, read-out: Activity
# SF-539 = test: Growth inhibition of human SF539 cells assessed as cell growth at 10^-5 M incubated for 48 hrs by sulforhodamine B assay relative to control; format: functional; settings: SF-539, 48 h, read-out: Activity
# BT-549 [6] = test: Growth inhibition of human BT549 cells incubated for 48 hrs by sulforhodamine B assay; format: functional; settings: BT-549, 48 h
# NCI-H522 [7] = test: Growth inhibition of human NCI-H522 cells incubated for 48 hrs by sulforhodamine B assay; format: functional; settings: NCI-H522, 48 h
# CAKI-1 = test: Growth inhibition of human Caki1 cells assessed as cell growth at 10^-7 M incubated for 48 hrs by sulforhodamine B assay relative to control; format: functional; settings: CAKI-1, 48 h, read-out: Activity
# BT-549 [8] = test: Growth inhibition of human BT549 cells assessed as cell growth at 10^-5 M incubated for 48 hrs by sulforhodamine B assay relative to control; format: functional; settings: BT-549, 48 h, read-out: Activity
# HCC 2998 = test: Growth inhibition of human HCC2998 cells assessed as cell growth at 10^-5 M incubated for 48 hrs by sulforhodamine B assay relative to control; format: functional; settings: HCC 2998, 48 h, read-out: Activity
# SNB-75 = test: Growth inhibition of human SNB75 cells assessed as cell growth at 10^-7 M incubated for 48 hrs by sulforhodamine B assay relative to control; format: functional; settings: SNB-75, 48 h, read-out: Activity
# HCT-15 = test: Growth inhibition of human HCT15 cells assessed as cell growth at 10^-5 M incubated for 48 hrs by sulforhodamine B assay relative to control; format: functional; settings: HCT-15, 48 h, read-out: Activity
# MOLT-4 [9] = test: Growth inhibition of human MOLT4 cells assessed as cell growth at 10^-7 M incubated for 48 hrs by sulforhodamine B assay relative to control; format: functional; settings: MOLT-4, 48 h, read-out: Activity
# SK-MEL-5 = test: Growth inhibition of human SK-MEL-5 cells assessed as cell growth at 10^-5 M incubated for 48 hrs by sulforhodamine B assay relative to control; format: functional; settings: SK-MEL-5, 48 h, read-out: Activity
# KM12 [10] = test: Growth inhibition of human KM12 cells assessed as cell growth at 10^-8 M incubated for 48 hrs by sulforhodamine B assay relative to control; format: functional; settings: KM12, 48 h, read-out: Activity
# SW-620 = test: Growth inhibition of human SW620 cells assessed as cell growth at 10^-8 M incubated for 48 hrs by sulforhodamine B assay relative to control; format: functional; settings: SW-620, 48 h, read-out: Activity
# A498 = test: Growth inhibition of human A498 cells assessed as cell growth at 10^-6 M incubated for 48 hrs by sulforhodamine B assay relative to control; format: functional; settings: A498, 48 h, read-out: Activity
# [11] = read-out: LC50 (the source's name)
# [12] = read-out: pLC50 (the source's name) (converted)
smiles,measurement,setting,value
CCS/C(Nc1ccccc1)=C(\C#N)C(=O)N/N=C\c1ccc(Cl)cc1Cl,growth at 0.1 µM,786-0,88%
same,growth at 10 µM,NCI-H522 [1],-2%
same,growth at 1 µM,NCI-H23,90%
same,growth at 0.01 µM,RXF 393,93%
same,growth at 100 µM,MOLT-4 [2],19%
same,GI50,TK-10; read-out: GI50,10.2 µM
same,CC50,TK-10; [11],> 100 µM
same,TGI,TK-10; read-out: TGI,> 100 µM
same,GI50,TK-10; read-out: pGI50 (converted),10.2 µM
same,CC50,TK-10; [12],> 100 µM
same,TGI,TK-10; read-out: pTGI,> 100 µM
same,growth at 0.1 µM,Malme-3M,89%
same,Activity,MDA-MB-435,12.4%
same,growth at 100 µM,MDA-MB-231 [3],9%
same,Activity,HL-60,Active
same,growth at 0.01 µM,K562,106%
same,growth at 100 µM,SF-268,27%
same,growth at 1 µM,MDA-MB-231 [4],89%
same,growth at 0.1 µM,EKVX,88%
same,growth at 1 µM,RPMI-8226,92%
same,growth at 10 µM,KM12 [5],24%
same,GI50,OVCAR-4; read-out: GI50,6.57 µM
same,CC50,OVCAR-4; [11],> 100 µM
same,TGI,OVCAR-4; read-out: TGI,> 100 µM
same,GI50,OVCAR-4; read-out: pGI50 (converted),6.61 µM
same,CC50,OVCAR-4; [12],> 100 µM
same,TGI,OVCAR-4; read-out: pTGI,> 100 µM
same,growth at 1 µM,DU-145,97%
same,growth at 10 µM,SF-539,3%
same,GI50,BT-549 [6]; read-out: GI50,2.8 µM
same,CC50,BT-549 [6]; [11],> 100 µM
same,TGI,BT-549 [6]; read-out: TGI,> 100 µM
same,GI50,BT-549 [6]; read-out: pGI50 (converted),2.82 µM
same,CC50,BT-549 [6]; [12],> 100 µM
same,TGI,BT-549 [6]; read-out: pTGI,> 100 µM
same,GI50,NCI-H522 [7]; read-out: GI50,1.84 µM
same,CC50,NCI-H522 [7]; [11],> 100 µM
same,GI50,NCI-H522 [7]; read-out: pGI50 (converted),1.82 µM
same,CC50,NCI-H522 [7]; [12],> 100 µM
same,growth at 0.1 µM,CAKI-1,84%
same,growth at 10 µM,BT-549 [8],18%
same,growth at 10 µM,HCC 2998,33%
same,growth at 0.1 µM,SNB-75,78%
same,growth at 10 µM,HCT-15,19%
same,growth at 0.1 µM,MOLT-4 [9],82%
same,growth at 10 µM,SK-MEL-5,-6%
same,growth at 0.01 µM,KM12 [10],101%
same,growth at 0.01 µM,SW-620,97%
same,growth at 1 µM,A498,68%
CCS/C(Nc1ccccc1)=C(\C#N)C(=O)Nc1ccc(OC)cc1,growth at 0.1 µM,786-0,86%
same,growth at 10 µM,NCI-H522 [1],-1%
same,growth at 1 µM,NCI-H23,85%
same,growth at 0.01 µM,RXF 393,106%
same,growth at 100 µM,MOLT-4 [2],18%
same,GI50,TK-10; read-out: GI50,24.3 µM
same,CC50,TK-10; [11],> 100 µM
same,TGI,TK-10; read-out: TGI,> 100 µM
same,GI50,TK-10; read-out: pGI50 (converted),24.5 µM
same,CC50,TK-10; [12],> 100 µM
same,TGI,TK-10; read-out: pTGI,> 100 µM
same,growth at 0.1 µM,Malme-3M,92%
same,Activity,MDA-MB-435,16.44%
same,growth at 100 µM,MDA-MB-231 [3],-18%
same,Activity,HL-60,Active
same,growth at 0.01 µM,K562,106%
same,growth at 100 µM,SF-268,11%
same,growth at 1 µM,MDA-MB-231 [4],93%
same,growth at 0.1 µM,EKVX,81%
same,growth at 1 µM,RPMI-8226,79%
same,growth at 10 µM,KM12 [5],28%
same,GI50,OVCAR-4; read-out: GI50,7.61 µM
same,CC50,OVCAR-4; [11],> 100 µM
same,TGI,OVCAR-4; read-out: TGI,> 100 µM
same,GI50,OVCAR-4; read-out: pGI50 (converted),7.59 µM
same,CC50,OVCAR-4; [12],> 100 µM
same,TGI,OVCAR-4; read-out: pTGI,> 100 µM
same,growth at 1 µM,DU-145,93%
same,growth at 10 µM,SF-539,-41%
same,GI50,BT-549 [6]; read-out: GI50,2.8 µM
same,CC50,BT-549 [6]; [11],> 100 µM
same,TGI,BT-549 [6]; read-out: TGI,> 100 µM
same,GI50,BT-549 [6]; read-out: pGI50 (converted),2.82 µM
same,CC50,BT-549 [6]; [12],> 100 µM
same,TGI,BT-549 [6]; read-out: pTGI,> 100 µM
same,GI50,NCI-H522 [7]; read-out: GI50,2.21 µM
same,CC50,NCI-H522 [7]; [11],> 100 µM
same,TGI,NCI-H522 [7]; read-out: TGI,9.68 µM
same,GI50,NCI-H522 [7]; read-out: pGI50 (converted),2.19 µM
same,CC50,NCI-H522 [7]; [12],> 100 µM
same,TGI,NCI-H522 [7]; read-out: pTGI (converted),9.77 µM
same,growth at 0.1 µM,CAKI-1,85%
same,growth at 10 µM,BT-549 [8],21%
same,growth at 10 µM,HCC 2998,41%
same,growth at 0.1 µM,SNB-75,84%
same,growth at 10 µM,HCT-15,16%
same,growth at 0.1 µM,MOLT-4 [9],90%
same,growth at 10 µM,SK-MEL-5,-8%
same,growth at 0.01 µM,KM12 [10],100%
same,growth at 0.01 µM,SW-620,97%
same,growth at 1 µM,A498,78%
